Counter-ions that a name gives are not always drawn. Like-named read-outs stand apart in the source and are kept apart here.
B1: secretory leukocyte protease inhibitor (protein, UniProt P03973 26-132, looked up)
Antileukoproteinase: SGKSFKAGVCPPKKSAQCLRYKKPECQSDWQCPGKKRCCPDTCGIKCLDPVDTPNPTRRKPGKCPVTYGQCLMLNPPNFCEMDGQCKRDLKCCMGMCGKSCVSPVKA

Tests used:
SARS-CoV-2 [1] = format: cell-based
Caco-2 cells = details: tested concentrations (data not shown)
SARS-CoV-2 [2] = format: cell-based; details: Calu-3 cells
TMPRSS2 = target: T1, TMPRSS2 (Homo sapiens, UniProt O15393); test: TMPRSS2 proteolytic activity in TMPRSS2-overexpressing HEK-293T cells, fluorogenic substrate BOC-QAR-AMC; format: cell-based
T1 construct: expressed in transfected cells; host or cells: HEK-293T
Protocol: B. Arbitrary fluorescence unit (AFU) measurements of control or TMPRSS-overexpressing cells incubated with BOC-QAR-AMC for 75 minutes at 37° C. are shown. Wells containing PBS and BOC-QAR-AMC were used as background fluorescence reads. C. Fluorescence of control or TMPRSS2-overexpressing cells was measured every 15 minutes for a total time of 180 minutes. D. The average proteolytic activity rate per minute of control or TMPRSS2-overexpressing cells. The fluorescent signal was measured by the UV filter (excitation 365 nm and emission 410 nm).
The results in A-C are presented as the means±SE from at least 3 independent experiments performed in duplicate and/or triplicate.
The following describes the development of an experimental framework for quantifying TMPRSS2 proteolytic activity. TMPRSS2 with a C-terminal V5 tag was overexpressed in a human cell line, HEK-293T, because of its high transfectability.
The effect of protease inhibitors on TMPRSS2 activity was tested.

HEK-293T cells = format: cell-based, human; details: tested concentrations (data not shown)

T1 sequence (O15393 whole entry): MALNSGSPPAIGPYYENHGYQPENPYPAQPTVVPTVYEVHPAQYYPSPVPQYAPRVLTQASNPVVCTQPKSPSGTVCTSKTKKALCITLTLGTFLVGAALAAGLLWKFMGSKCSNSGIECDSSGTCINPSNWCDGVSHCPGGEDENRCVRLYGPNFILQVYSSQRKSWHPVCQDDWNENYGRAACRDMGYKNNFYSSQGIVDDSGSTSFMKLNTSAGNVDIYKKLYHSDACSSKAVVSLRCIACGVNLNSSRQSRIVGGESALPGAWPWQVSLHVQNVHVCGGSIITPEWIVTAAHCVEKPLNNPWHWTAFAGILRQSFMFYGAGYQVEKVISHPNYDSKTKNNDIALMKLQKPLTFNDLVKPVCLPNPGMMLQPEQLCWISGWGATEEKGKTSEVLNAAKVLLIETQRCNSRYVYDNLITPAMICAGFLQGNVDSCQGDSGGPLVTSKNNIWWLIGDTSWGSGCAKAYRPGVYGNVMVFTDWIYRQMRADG

| Molecule | decrease in viral load (genomic SARS-CoV-2 from intracellular RNA) compared with untreated control cells (SARS-CoV-2 [1]; Caco-2 cells, 10 μM, twenty hours after infection) [fold] | toxicity in Caco-2 cells (Caco-2 cells) | SARS-CoV-2 plaque formation (SARS-CoV-2 [2]; 24 hours after infection) | SARS-CoV-2 plaque formation (SARS-CoV-2 [2]; 48 hours after infection) | decrease in viral load (genomic SARS-CoV-2 from intracellular RNA) compared with untreated control cells (SARS-CoV-2 [1]) [fold] | IC50 (TMPRSS2; BOC-QAR-AMC, read-out: IC50 of inhibition of TMPRSS2 proteolytic activity) [nM] | toxic effects in viability assays (HEK-293T cells) | inhibition of TMPRSS2 proteolytic activity (TMPRSS2; all tested concentrations) |
| --- | --- | --- | --- | --- | --- | --- | --- | --- |
| CN(C)C(=O)COC(=O)Cc1ccc(OC(=O)c2ccc(NC(=N)N)cc2)cc1 [camostat mesylate, reference compound] | −3.9 | nontoxic | decreased SARS-CoV-2 plaque formation | effect of camostat lasted |  |  |  |  |
| alpha 1 antitrypsin [A1AT] |  | nontoxic |  |  | −2.6 | 357 | did not demonstrate toxic effects |  |
| B1 |  |  |  |  |  |  |  | none of the tested concentrations of SLPI inhibited TMPRSS2 proteolytic activity |

Source: US20210338787A1 (priority 2020, published 2021)
